In BindingDB's records for doi:10.1016/j.bmcl.2009.09.002 (Novartis Institutes For Biomedical Research, 2009):

Assay: Antagonist activity at human CXCR3 expressed in L1.2 cells assessed as inhibition of I-TAC-induced cell migration by flow cytometry

Question: Which IC50 does the source give for CCN(CC)C(=O)[C@@H]1C=C2c3cccc4[nH]cc(c34)C[C@H]2N(C(=O)Nc2ccccc2)C1 [(6aR,9R)-N9,N9-diethyl-N7-phenyl-6,6a,8,9-tetrahydroindolo[4,3-fg]quinoline-7,9(4H)-dicarboxamide] here?
Answer: Its IC50 is 74 nM.
